Data as given in EP4785795A1 (priority 2023, dated 2025).

System: Aspergillus flavus
Assay type: cell-based

C[C@H]1NC(=O)CNC1=O [cyclo (D-Ala-Gly)]
aflatoxin production inhibiting activity: did not exhibit sufficient aflatoxin production inhibiting activity

O=C1CNC(=O)CN1 [cyclo (Gly-Gly)]
aflatoxin production inhibiting activity: did not exhibit sufficient aflatoxin production inhibiting activity

CC[C@@H]1NC(=O)CNC1=O [cyclo (L-Abu(2)-Gly)]
aflatoxin production inhibiting activity: extremely excellent aflatoxin production inhibiting activity
aflatoxin production inhibiting activity relative to the natural product cyclo (L-Ala-Gly) (based on the IC50 (concentration that reduces the amount of aflatoxin B1 to 1/2), 25°C, 4 days): 75 fold
